The values below are quoted from earlier work in patent publication US20250009670A1, “Stable Solid Oral Formulation Of Tafamidis Or Pharmaceutically Acceptable Salt Thereof” (Navinta, LLC, priority 2023, published 2025).

Take `O=C(O)c1ccc2nc(-c3cc(Cl)cc(Cl)c3)oc2c1` [Tafamidis, 2-(3,5-dichlorophenyl)-1,3-benzoxazole-6-carboxylic acid]: the aqueous solubility entry is “low aqueous solubility”.
